According to ChEMBL document CHEMBL5649169 (ChemMedChem, 2018):

Tests used:
[1] = target: DNA topoisomerase 2-beta (Homo sapiens) (UniProt Q02880); note: assay method not described here
[2] = target: Dipeptidyl peptidase 2 (Homo sapiens) (UniProt Q9UHL4); note: assay method not described here
[3] = target: MICOS complex subunit MIC60 (Homo sapiens) (UniProt Q16891); note: assay method not described here
[4] = target: THO complex subunit 2 (Homo sapiens) (UniProt Q8NI27); note: assay method not described here
[5] = target: Calcium-binding protein 39 (Homo sapiens) (UniProt Q9Y376); note: assay method not described here
Homo sapiens [6] = species: Homo sapiens; note: assay method not described here
[7] = target: Succinate dehydrogenase [ubiquinone] flavoprotein subunit, mitochondrial (Homo sapiens) (UniProt P31040); note: assay method not described here
[8] = target: Membrane-associated tyrosine- and threonine-specific cdc2-inhibitory kinase (Homo sapiens) (UniProt Q99640); note: assay method not described here
[9] = target: Large ribosomal subunit protein eL13 (Homo sapiens) (UniProt P26373); note: assay method not described here
[10] = target: Tubulin beta-5 chain (Homo sapiens) (UniProt P07437); note: assay method not described here
Chain of Tubulin beta-5 chain (Homo sapiens) (P07437 whole entry): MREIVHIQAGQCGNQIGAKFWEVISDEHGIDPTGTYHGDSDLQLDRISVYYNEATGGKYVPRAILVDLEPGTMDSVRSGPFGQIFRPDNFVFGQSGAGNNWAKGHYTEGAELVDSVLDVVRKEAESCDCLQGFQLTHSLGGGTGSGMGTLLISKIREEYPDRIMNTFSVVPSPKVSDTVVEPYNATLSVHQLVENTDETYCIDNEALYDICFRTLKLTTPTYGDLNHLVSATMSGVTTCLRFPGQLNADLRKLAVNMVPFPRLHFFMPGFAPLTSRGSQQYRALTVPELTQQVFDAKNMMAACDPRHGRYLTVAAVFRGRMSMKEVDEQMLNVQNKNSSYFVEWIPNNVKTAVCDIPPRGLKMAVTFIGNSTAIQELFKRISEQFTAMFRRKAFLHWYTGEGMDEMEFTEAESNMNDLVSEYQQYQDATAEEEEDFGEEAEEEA

[11] = target: Nucleolar protein 56 (Homo sapiens) (UniProt O00567); note: assay method not described here
Chain of Nucleolar protein 56 (Homo sapiens) (O00567 whole entry): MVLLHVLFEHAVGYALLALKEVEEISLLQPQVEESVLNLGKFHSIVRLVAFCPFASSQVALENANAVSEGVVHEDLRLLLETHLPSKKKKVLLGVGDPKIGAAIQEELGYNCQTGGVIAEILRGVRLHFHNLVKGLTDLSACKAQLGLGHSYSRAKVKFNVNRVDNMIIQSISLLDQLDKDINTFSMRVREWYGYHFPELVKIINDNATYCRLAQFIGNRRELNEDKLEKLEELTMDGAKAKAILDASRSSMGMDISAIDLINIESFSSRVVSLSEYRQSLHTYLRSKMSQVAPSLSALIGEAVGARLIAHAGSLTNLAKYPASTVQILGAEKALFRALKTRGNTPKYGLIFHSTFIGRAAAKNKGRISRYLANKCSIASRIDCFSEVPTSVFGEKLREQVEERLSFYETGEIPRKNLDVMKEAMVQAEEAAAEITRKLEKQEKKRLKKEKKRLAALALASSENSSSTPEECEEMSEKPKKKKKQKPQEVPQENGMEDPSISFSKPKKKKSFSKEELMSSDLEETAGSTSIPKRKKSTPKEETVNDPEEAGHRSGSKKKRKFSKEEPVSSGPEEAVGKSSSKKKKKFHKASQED

[12] = target: 26S proteasome regulatory subunit 4 (Homo sapiens) (UniProt P62191); note: assay method not described here
[13] = target: Nucleosome assembly protein 1-like 1 (Homo sapiens) (UniProt P55209); note: assay method not described here
Chain of Nucleosome assembly protein 1-like 1 (Homo sapiens) (P55209 whole entry): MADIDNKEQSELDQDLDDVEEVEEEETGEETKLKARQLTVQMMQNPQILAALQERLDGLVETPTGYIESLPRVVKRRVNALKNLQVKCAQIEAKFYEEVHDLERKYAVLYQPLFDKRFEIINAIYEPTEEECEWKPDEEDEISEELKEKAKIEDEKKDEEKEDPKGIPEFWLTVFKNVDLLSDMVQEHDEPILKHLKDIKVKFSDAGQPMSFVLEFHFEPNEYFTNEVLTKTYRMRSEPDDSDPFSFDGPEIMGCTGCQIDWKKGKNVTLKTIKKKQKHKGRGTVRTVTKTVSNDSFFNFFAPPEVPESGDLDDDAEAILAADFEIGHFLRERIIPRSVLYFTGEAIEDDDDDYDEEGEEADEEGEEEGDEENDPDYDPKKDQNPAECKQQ

[14] = target: Tubulin alpha-1B chain (Homo sapiens) (UniProt P68363); note: assay method not described here
[15] = target: DNA replication licensing factor MCM5 (Homo sapiens) (UniProt P33992); note: assay method not described here
[16] = target: Large ribosomal subunit protein eL36 (Homo sapiens) (UniProt Q9Y3U8); note: assay method not described here
[17] = target: ATP-binding cassette sub-family E member 1 (Homo sapiens) (UniProt P61221); note: assay method not described here
[18] = target: Tyrosine-protein kinase ABL2 (Homo sapiens) (UniProt P42684); note: assay method not described here
Homo sapiens [19] = species: Homo sapiens; remark: listed apart in the source; note: assay method not described here
[20] = target: Dolichyl-diphosphooligosaccharide--protein glycosyltransferase subunit KCP2 (Homo sapiens) (UniProt Q8N6L1); note: assay method not described here
[21] = target: Tyrosine-protein kinase ABL1 (Homo sapiens, UniProt P00519); details: read-out: Kd(app)
[22] = target: U5 small nuclear ribonucleoprotein 200 kDa helicase (Homo sapiens) (UniProt O75643); note: assay method not described here
[23] = target: Importin-8 (Homo sapiens) (UniProt O15397); note: assay method not described here
[24] = target: Bifunctional glutamate/proline--tRNA ligase (Homo sapiens) (UniProt P07814); note: assay method not described here
[25] = target: Cyclin-dependent kinase 13 (Homo sapiens) (UniProt Q14004); note: assay method not described here
Chain of Cyclin-dependent kinase 13 (Homo sapiens) (Q14004 whole entry, looked up): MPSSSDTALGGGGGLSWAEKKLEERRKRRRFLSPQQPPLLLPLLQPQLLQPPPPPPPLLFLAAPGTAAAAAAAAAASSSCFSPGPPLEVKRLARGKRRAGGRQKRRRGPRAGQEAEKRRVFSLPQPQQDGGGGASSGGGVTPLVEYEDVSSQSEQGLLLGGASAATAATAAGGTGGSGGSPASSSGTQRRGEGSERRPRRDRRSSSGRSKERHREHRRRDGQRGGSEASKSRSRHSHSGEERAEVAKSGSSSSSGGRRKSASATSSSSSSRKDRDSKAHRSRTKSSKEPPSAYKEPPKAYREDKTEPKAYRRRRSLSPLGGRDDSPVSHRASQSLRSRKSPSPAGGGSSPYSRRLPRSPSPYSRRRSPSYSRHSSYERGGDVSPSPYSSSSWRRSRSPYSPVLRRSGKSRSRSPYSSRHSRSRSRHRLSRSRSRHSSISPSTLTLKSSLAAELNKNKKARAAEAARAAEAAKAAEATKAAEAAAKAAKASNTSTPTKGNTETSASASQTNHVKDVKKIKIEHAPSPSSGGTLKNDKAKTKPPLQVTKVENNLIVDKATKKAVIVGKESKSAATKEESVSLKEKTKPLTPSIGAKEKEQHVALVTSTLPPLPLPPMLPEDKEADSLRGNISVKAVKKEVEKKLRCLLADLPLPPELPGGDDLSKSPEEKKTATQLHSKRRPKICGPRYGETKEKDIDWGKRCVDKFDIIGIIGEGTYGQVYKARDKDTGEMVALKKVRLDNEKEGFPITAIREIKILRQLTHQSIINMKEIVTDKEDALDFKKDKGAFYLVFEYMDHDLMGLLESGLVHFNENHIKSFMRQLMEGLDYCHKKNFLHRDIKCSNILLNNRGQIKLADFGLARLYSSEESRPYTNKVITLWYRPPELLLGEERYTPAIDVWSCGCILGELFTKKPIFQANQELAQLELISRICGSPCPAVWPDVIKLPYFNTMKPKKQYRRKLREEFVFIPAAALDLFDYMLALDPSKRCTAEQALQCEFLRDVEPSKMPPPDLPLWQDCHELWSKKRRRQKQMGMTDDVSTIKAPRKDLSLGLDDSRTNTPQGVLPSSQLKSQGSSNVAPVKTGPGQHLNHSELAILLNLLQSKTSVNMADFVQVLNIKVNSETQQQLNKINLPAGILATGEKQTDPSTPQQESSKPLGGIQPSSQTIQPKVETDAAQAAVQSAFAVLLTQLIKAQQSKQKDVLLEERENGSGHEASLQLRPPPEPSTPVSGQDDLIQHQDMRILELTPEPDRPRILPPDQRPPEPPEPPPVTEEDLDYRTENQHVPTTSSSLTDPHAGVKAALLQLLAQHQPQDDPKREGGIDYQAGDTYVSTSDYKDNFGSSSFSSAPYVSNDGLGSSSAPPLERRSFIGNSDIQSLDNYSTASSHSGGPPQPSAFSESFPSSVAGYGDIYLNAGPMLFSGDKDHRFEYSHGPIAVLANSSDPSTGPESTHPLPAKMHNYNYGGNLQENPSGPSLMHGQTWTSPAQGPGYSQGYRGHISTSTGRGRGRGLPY

[26] = target: Growth factor receptor-bound protein 2 (Homo sapiens) (UniProt P62993); note: assay method not described here
Homo sapiens [27] = species: Homo sapiens; remark: listed apart in the source; note: assay method not described here
[28] = target: Splicing factor 3B subunit 3 (Homo sapiens) (UniProt Q15393); note: assay method not described here
[29] = target: Neutral alpha-glucosidase AB (Homo sapiens) (UniProt Q14697); note: assay method not described here
[30] = target: Heat shock protein beta-1 (Homo sapiens) (UniProt P04792); note: assay method not described here
[31] = target: Transmembrane 9 superfamily member 4 (Homo sapiens) (UniProt Q92544); note: assay method not described here
[32] = target: Argininosuccinate synthase (Homo sapiens) (UniProt P00966); note: assay method not described here
[33] = target: Ras-related protein Rab-5B (Homo sapiens) (UniProt P61020); note: assay method not described here
[34] = target: Transportin-3 (Homo sapiens) (UniProt Q9Y5L0); note: assay method not described here
[35] = target: Spliceosome RNA helicase DDX39B (Homo sapiens) (UniProt Q13838); note: assay method not described here
[36] = target: Tripeptidyl-peptidase 2 (Homo sapiens) (UniProt P29144); note: assay method not described here
[37] = target: NADH dehydrogenase [ubiquinone] 1 alpha subcomplex subunit 5 (Homo sapiens) (UniProt Q16718); note: assay method not described here
[38] = target: Nucleolar and coiled-body phosphoprotein 1 (Homo sapiens) (UniProt Q14978); note: assay method not described here
[39] = target: ATP synthase F(0) complex subunit e, mitochondrial (Homo sapiens) (UniProt P56385); note: assay method not described here
[40] = target: Nuclear mitotic apparatus protein 1 (Homo sapiens) (UniProt Q14980); note: assay method not described here
Chain of Nuclear mitotic apparatus protein 1 (Homo sapiens) (Q14980 whole entry): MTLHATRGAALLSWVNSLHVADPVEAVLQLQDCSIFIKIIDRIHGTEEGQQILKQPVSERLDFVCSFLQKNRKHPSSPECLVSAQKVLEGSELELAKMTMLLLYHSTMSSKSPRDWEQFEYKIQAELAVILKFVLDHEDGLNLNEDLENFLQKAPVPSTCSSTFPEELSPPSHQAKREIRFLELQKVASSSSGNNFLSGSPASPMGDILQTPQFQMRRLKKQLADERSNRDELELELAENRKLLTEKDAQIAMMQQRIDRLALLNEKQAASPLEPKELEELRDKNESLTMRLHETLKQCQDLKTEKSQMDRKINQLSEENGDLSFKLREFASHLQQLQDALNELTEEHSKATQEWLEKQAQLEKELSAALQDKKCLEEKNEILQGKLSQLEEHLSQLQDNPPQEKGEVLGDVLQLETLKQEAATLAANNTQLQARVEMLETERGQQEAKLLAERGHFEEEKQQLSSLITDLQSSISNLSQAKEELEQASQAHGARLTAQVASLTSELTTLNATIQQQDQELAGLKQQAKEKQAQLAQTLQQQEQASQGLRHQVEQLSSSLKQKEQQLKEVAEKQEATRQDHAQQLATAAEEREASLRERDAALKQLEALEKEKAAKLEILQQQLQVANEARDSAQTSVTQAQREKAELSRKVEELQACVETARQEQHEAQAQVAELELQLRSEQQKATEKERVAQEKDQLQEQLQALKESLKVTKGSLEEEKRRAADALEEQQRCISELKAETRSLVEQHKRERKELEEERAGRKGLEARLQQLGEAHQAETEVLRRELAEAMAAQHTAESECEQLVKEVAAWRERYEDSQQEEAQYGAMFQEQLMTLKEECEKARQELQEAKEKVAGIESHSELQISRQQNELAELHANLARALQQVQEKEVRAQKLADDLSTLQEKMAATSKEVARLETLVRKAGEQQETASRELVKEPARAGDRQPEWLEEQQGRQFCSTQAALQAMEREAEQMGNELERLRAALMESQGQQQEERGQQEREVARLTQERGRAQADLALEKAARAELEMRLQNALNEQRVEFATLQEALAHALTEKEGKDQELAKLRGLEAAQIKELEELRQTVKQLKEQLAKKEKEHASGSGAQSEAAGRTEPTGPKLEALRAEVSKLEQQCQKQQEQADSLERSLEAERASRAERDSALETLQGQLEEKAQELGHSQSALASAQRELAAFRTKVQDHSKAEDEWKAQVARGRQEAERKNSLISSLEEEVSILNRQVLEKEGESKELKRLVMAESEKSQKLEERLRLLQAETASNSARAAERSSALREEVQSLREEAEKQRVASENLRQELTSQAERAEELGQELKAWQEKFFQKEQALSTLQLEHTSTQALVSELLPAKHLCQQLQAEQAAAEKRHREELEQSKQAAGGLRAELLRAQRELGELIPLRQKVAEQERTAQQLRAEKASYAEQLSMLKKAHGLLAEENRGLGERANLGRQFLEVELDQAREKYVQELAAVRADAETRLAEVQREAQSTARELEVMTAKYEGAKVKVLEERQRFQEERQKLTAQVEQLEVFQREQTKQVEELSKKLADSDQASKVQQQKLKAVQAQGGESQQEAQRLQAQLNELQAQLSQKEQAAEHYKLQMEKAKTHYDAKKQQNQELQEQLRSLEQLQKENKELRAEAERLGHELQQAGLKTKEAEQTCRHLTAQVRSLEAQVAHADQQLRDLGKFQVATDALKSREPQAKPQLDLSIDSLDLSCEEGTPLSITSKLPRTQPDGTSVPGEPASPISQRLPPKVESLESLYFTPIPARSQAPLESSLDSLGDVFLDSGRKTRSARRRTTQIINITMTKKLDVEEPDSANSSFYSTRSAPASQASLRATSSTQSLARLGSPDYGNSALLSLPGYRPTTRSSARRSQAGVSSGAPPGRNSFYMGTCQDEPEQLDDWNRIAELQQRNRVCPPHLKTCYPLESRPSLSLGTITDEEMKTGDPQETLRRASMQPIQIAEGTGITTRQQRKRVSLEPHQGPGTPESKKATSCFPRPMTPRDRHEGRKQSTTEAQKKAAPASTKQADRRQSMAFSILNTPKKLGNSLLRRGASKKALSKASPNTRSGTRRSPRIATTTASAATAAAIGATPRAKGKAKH

[41] = target: Nuclear pore complex protein Nup160 (Homo sapiens) (UniProt Q12769); note: assay method not described here
[42] = target: Stalled ribosome sensor GCN1 (Homo sapiens) (UniProt Q92616); note: assay method not described here
[43] = target: rRNA 2'-O-methyltransferase fibrillarin (Homo sapiens) (UniProt P22087); note: assay method not described here
Homo sapiens [44] = species: Homo sapiens; remark: listed apart in the source; note: assay method not described here
[45] = target: Small ribosomal subunit protein eS12 (Homo sapiens) (UniProt P25398); note: assay method not described here
[46] = target: Mitotic checkpoint protein BUB3 (Homo sapiens) (UniProt O43684); note: assay method not described here
[47] = target: Nucleolysin TIAR (Homo sapiens) (UniProt Q01085); note: assay method not described here
[48] = target: RAC-alpha serine/threonine-protein kinase (Homo sapiens) (UniProt P31749); note: assay method not described here

Cc1ccc(C(=O)Nc2cccc(C(F)(F)F)c2)cc1Nc1nc(-c2cccnc2)nc2c1cnn2C
ED50 [1]: 3.18 µM | ED50 [2]: 5.29 nM | ED50 [3]: 5750 nM | ED50 [4]: 8.4 µM | ED50 [5]: 157 nM | ED50 (Homo sapiens [6]): 18 nM | ED50 [7]: 120 nM | ED50 [8]: 9.95 nM | ED50 [9]: 13.9 µM | ED50 [10]: 2460 nM | ED50 [11]: 13.1 µM | ED50 [12]: 91.8 µM | ED50 [13]: 3.1 µM | ED50 [14]: 1730 nM | ED50 [15]: 6.51 µM | ED50 [16]: 10.5 µM | ED50 [17]: 13.8 µM | ED50 [18]: 1060 nM | ED50 (Homo sapiens [19]): 3570 nM | ED50 [20]: 0.164 µM | Kd [21]: 910 nM | ED50 [22]: 6.15 µM | ED50 [23]: 49.5 µM | ED50 [24]: 32.4 nM | ED50 [25]: 17.8 µM | ED50 [26]: 53.4 nM | ED50 (Homo sapiens [27]): 17.4 µM | ED50 [28]: 13.9 µM | ED50 [29]: 4090 nM | ED50 [30]: 11 µM | ED50 [31]: 9.65 µM | ED50 [32]: 5020 nM | ED50 [33]: 18.1 µM | ED50 [34]: 19 µM | ED50 [35]: 18.4 µM | ED50 [36]: 53.8 µM | ED50 [37]: 5050 nM | ED50 [38]: 13.9 nM | ED50 [39]: 20 µM | ED50 [40]: 0.308 nM | ED50 [41]: 0.878 µM | ED50 [42]: 85 nM | ED50 [43]: 5440 nM | ED50 (Homo sapiens [44]): 2740 nM | ED50 [45]: 171 nM | ED50 [46]: 5.28 nM | ED50 [47]: 934 nM | ED50 [48]: 33.2 µM

Cc1ccc(C(=O)Nc2cccc(C(F)(F)F)c2)cc1Nc1nc(-c2cccnc2)nc2nn(C)cc12
ED50 [1]: 732 µM | ED50 [2]: 504 nM | ED50 [3]: 7.43 nM | ED50 [4]: 2.05 µM | ED50 [5]: 7.82 nM | ED50 (Homo sapiens [6]): 55.8 nM | ED50 [7]: 2360 nM | ED50 [8]: 84.6 nM | ED50 [9]: 0.0196 µM | ED50 [10]: 9.05 nM | ED50 [11]: 4 µM | ED50 [12]: 0.00477 µM | ED50 [13]: 147 µM | ED50 [14]: 3870 nM | ED50 [15]: 1560 µM | ED50 [16]: 0.0103 µM | ED50 [17]: 0.000362 µM | ED50 [18]: 2040 nM | ED50 (Homo sapiens [19]): 61 nM | ED50 [20]: 7.59 µM | Kd [21]: 732 nM | ED50 [22]: 0.539 µM | ED50 [23]: 25.8 µM | ED50 [24]: 1210 nM | ED50 [25]: 8.22 µM | ED50 [26]: 821 nM | ED50 (Homo sapiens [27]): 0.0301 µM | ED50 [28]: 6.08 µM | ED50 [29]: 40.2 nM | ED50 [30]: 0.0109 µM | ED50 [31]: 95.3 µM | ED50 [32]: 57.9 nM | ED50 [33]: 0.0327 µM | ED50 [34]: 0.669 µM | ED50 [35]: 0.957 µM | ED50 [36]: 0.487 µM | ED50 [37]: 253 nM | ED50 [38]: 178 nM | ED50 [39]: 0.531 µM | ED50 [40]: 31.8 nM | ED50 [41]: 160 µM | ED50 [42]: 57.9 nM | ED50 [43]: 21.4 nM | ED50 (Homo sapiens [44]): 74.7 nM | ED50 [45]: 254 nM | ED50 [46]: 67.9 nM | ED50 [47]: 1.29 nM | ED50 [48]: 0.216 µM
